Source: patent US20120142645A1, “NEUROACTIVE STEROID COMPOSITIONS AND METHODS OF USE FOR LOWERING CHOLESTEROL” (priority 2009, published 2012)

Assays:
[1] = tested on: humans; conditions: cited from earlier work
[2] = tested on: subjects with mild traumatic brain injury (TBI); experiment: Total cholesterol in mild TBI subjects, pregnenolone 8 weeks (100, 300, then 500 mg/day oral) versus placebo; assay type: in vivo, human; conditions: baseline to study completion (8 weeks), t-test of change scores p=0.035, FIG. 3
Source text: Ten (10) additional subjects with mild TBI were given a placebo.

[3] = tested on: patients with schizophrenia or schizoaffective disorder; experiment: BACS cognitive battery; same 8-week adjunctive pregnenolone trial; assay type: in vivo, human; conditions: for BACS Composite Z-score / BACS Digit Sequencing raw score / BACS Symbol Coding raw score / BACS Token Motor raw score / BACS Tower of London raw score / BACS Verbal Fluency raw score / BACS Verbal Memory raw score: mean, n = 9; for BACS Composite, difference PG vs placebo in Z-score change: not statistically significant (p=0.22)
Experimental: Study Design and Subjects. Disclosed herein is a placebo-controlled, double-blind, parallel group, randomized trial of adjunctive pregnenolone for the treatment of cognitive and negative symptoms in patients with schizophrenia or schizoaffective disorder. […] Patients received a total of 6 study visits, which took place every two weeks. […] The trial was conducted at a single site, the Durham Veterans Affairs Medical Center in Durham, N.C. The protocol was approved by the local institutional review board and conducted under FDA Investigational New Drug (IND) #71,768. The ClinicalTrials.gov number for this study is NCT00560937.
Cognitive symptoms were assessed by the Brief Assessment of Cognition in Schizophrenia (BAGS; Keefe et al., 2004; Keefe et al., 2008), and the MATRICS Consensus Cognitive Battery (Nuechterlein & Green, 2006; Nuechterlein et al., 2008). It is believed that no clinical trial to date has reported both of these cognitive assessments within the same study. The BAGS and MATRICS batteries were administered two weeks following the screening visit (following the completion of the two-week placebo lead-in phase at Visit 2), and at two 4-week intervals thereafter (at midpoint following randomization at Visit 4 and at the final visit (Visit 6).
The BAGS cognitive battery utilizes the following assessments in the respective targeted domains (Keefe et al., 2004; Keefe et al., 2008): list learning (verbal memory), digit sequencing task (working memory), token motor task (motor speed), verbal fluency (processing speed), symbol coding (attention and processing speed), and the Tower of London test (executive functions/reasoning and problem solving). The MATRICS cognitive battery utilizes the following assessments: Trail Making Test, Part A and the symbol coding subtest of the BAGS (both assess speed of processing), the Hopkins Verbal Learning Test-Revised, immediate recall (three learning trials only) [verbal learning], the Wechsler Memory Scale, 3rd ed., spatial span subtest (working memory, nonverbal), the Letter-Number Span test (working memory, verbal), the Neuropsychological Assessment Battery, mazes subtest (reasoning and problem solving), the Brief Visuospatial Memory Test-Revised (visual learning), the Category Fluency Test (animal naming) [speed of processing], the Mayer-Salovey-Caruso Emotional Intelligence Test, managing emotions branch (social cognition), and the Continuous Performance Test, Identical Pairs version (attention/vigilance) Of note, the symbol coding subtest of the BAGS was administered only once per visit at Visits 2, 4, and 6, although it is a component of both the BAGS and MATRICS cognitive batteries, in order to avoid potentially confounding practice effects.

[4] = Week 0 to Week 8, listed as pregnenolone

## CC(=O)[C@H]1CC[C@H]2[C@@H]3CC=C4C[C@@H](O)CC[C@]4(C)[C@H]3CC[C@]12C [PG, pregnenolone]
[1]; 15-30 mg/day, no significant side effects compared to placebo, Meieran et al., 2004
  Tolerability in healthy volunteers: generally well-tolerated
[1]; 25-500 mg/day, studies of the 1940s and 1950s
  Safety and tolerability in humans: safe and well-tolerated
[2]
  Total cholesterol (percent change) compared to placebo: statistically significant reduction
[2]; listed as pregnenolone
  Total cholesterol (percent change) compared to placebo: reduced
[3]; Week 0 (baseline)
  BACS Composite Z-score: −1.54
  BACS Digit Sequencing raw score: 15.78
  BACS Symbol Coding raw score: 36.89
  BACS Token Motor raw score: 46.44
  BACS Tower of London raw score: 13.22
  BACS Verbal Fluency raw score: 45.78
  BACS Verbal Memory raw score: 36.78
[3]; Week 0 to Week 8
  BACS Composite, change in Z-score: 0.60
  BACS Digit Sequencing, change in Z-score: 0.50
  BACS Digit Sequencing, difference PG vs placebo in Z-score change: 0.25 ± 0.29
  BACS Symbol Coding, change in Z-score: 0.11
  BACS Symbol Coding, difference PG vs placebo in Z-score change: −0.16 ± 0.24
  BACS Token Motor, change in Z-score: 0.40
  BACS Token Motor, difference PG vs placebo in Z-score change: 0.42 ± 0.66
  BACS Tower of London, change in Z-score: 0.82±
  BACS Tower of London, difference PG vs placebo in Z-score change: 0.61 ± 0.80
  BACS Verbal Fluency, change in Z-score: −0.05
  BACS Verbal Fluency, difference PG vs placebo in Z-score change: −0.06 ± 0.32
  BACS Verbal Memory, change in Z-score: 0.83
  BACS Verbal Memory, difference PG vs placebo in Z-score change: 0.61 ± 0.38
  BACS Composite, difference PG vs placebo in Z-score change: 0.38 ± 0.30
[3]; [4]
  BACS Composite, change in Z-score: 0.60±0.78
  BACS Digit Sequencing, difference PG vs placebo in Z-score change: 0.25
  BACS Token Motor, difference PG vs placebo in Z-score change: 0.42
  BACS Tower of London, difference PG vs placebo in Z-score change: 0.61
  BACS Verbal Memory, difference PG vs placebo in Z-score change: 0.61
  BACS Composite, difference PG vs placebo in Z-score change: approximately 0.4
[3]; Week 4
  BACS Composite Z-score: −1.04
  BACS Digit Sequencing raw score: 17.22
  BACS Symbol Coding raw score: 44.78
  BACS Token Motor raw score: 55.56
  BACS Tower of London raw score: 15.22
  BACS Verbal Fluency raw score: 45.11
  BACS Verbal Memory raw score: 39.00
[3]; Week 8
  BACS Composite Z-score: −0.93
  BACS Digit Sequencing raw score: 18.44
  BACS Symbol Coding raw score: 38.67
  BACS Token Motor raw score: 52.22
  BACS Tower of London raw score: 16.22
  BACS Verbal Fluency raw score: 45.22
  BACS Verbal Memory raw score: 43.78
